Like-named read-outs stand apart in the source and are kept apart here.
How the values were obtained:
[1] = tested on: SH-SY5Y cells; assay: Nuclear count from microscopy images (cellular growth and toxicity); settings: PKIS2 primary screening
[2] = tested on: endogenous TFE3; assay: TFE3 nuclear translocation, immunocytochemistry high-content imaging; assay type: cell-based; settings: PKIS2 primary screening
[3] = tested on: SH-SY5Y cells; assay: AK (adenylate kinase) release ToxiLight cytotoxicity assay; settings: PKIS2 primary screening
Protocol: Total cell lysis with 5 µL 5% Triton-X 100 (Sigma-Aldrich, T8787) is used as a positive control for the assay and toxicity is expressed as a percentage of luminescence under DMSO conditions.

[4] = tested on: endogenous TFEB; assay: TFEB nuclear translocation, immunocytochemistry high-content imaging; assay type: cell-based; settings: PKIS2 primary screening
[5] = tested on: SH-SY5Y cells
Description: The PKIS2 Library was supplied by The Structural Genomics Consortium at the University of North Carolina at Chapel Hill.

[6] = PKIS2 primary screening, DQ Red BSA intensity
[7] = PKIS2 primary screening, DQ Red BSA spot count

Row | Structure (SMILES) | Nuclear Count [1] | TFE3 % [2] | AK [3] | TFEB % [4] | DQ Intensity [5, 6] | DQ Spot [5, 7] | DQ Intensity ([5]; PKIS2 primary screening) | DQ Spot ([5]; PKIS2 primary screening) | DQ Intensity [5] | DQ Spot [5]
1 | NCCNS(=O)(=O)c1ccc(-c2ccnc3[nH]ccc23)cc1 [UNC10225023A] | 129.56 | 9.07% | 82.12 | 3.25% | 104.54 | 94.72 | – | – | – | –
2 | COC(=O)c1cccc(NC(=O)NC2CCN(c3ccnc(Nc4ccc(OC)cc4)n3)C2)c1 (stereo not drawn) [GSK1379746] | 105.57 | 11.39% | 99.00 | 6.50% | 97.94 | 97.45 | – | – | – | –
3 | COc1ccc(Nc2nccc(N3CCC(NC(=O)Nc4ccc5c(c4)OCO5)C3)n2)cc1 (stereo not drawn) [GSK1379745] | 86.22 | 19.51% | 76.28 | 10.83% | 69.10 | 77.91 | – | – | – | –
4 | COc1ccc(-c2nc3n(c2-c2ccncc2)CCC3)cc1 [UNC10225334B] | 89.36 | 11.14% | 75.67 | 9.58% | 91.69 | 94.15 | – | – | – | –
5 | O=C(Nc1cccc(-c2nn3ncccc3c2-c2ccnc(Nc3cccc(C(F)(F)F)c3)n2)c1)c1c(F)cccc1F [UNC10225174A] | 93.11 | 11.86% | 107.72 | 2.89% | – | – | 102.81 | 113.18 | – | –
6 | C[C@@H](Oc1cc(-n2cnc3cc(-c4ccncc4)ccc32)sc1C(N)=O)c1ccccc1Cl [UNC10225262A] | 39.15 | 14.34% | 125.08 | 9.74% | – | – | 208.10 | 109.28 | – | –
7 | Cc1cccc(Nc2nc(N[C@H]3CCNC3)ncc2C(N)=O)c1.Cl [UNC10225356A] | 97.71 | 8.51% | 117.33 | 10.40% | – | – | 128.58 | 110.55 | – | –
8 | Cc1cccc2c(-c3ccncn3)c(-c3ccc(F)cc3)nn12 [UNC10225097A] | 79.09 | 7.36% | 80.54 | 5.54% | – | – | 92.70 | 100.21 | – | –
9 | COc1ccc(NC(=O)c2ccc(-c3cc(-c4nnc(C)o4)ccc3C)cc2)cc1 [UNC10225475A] | 99.11 | 13.72% | 97.70 | 3.99% | – | – | 95.33 | 98.26 | – | –
10 | Nc1cccc(-c2ccc3c(N)n[nH]c3c2)n1 [GSK2192730] | 95.98 | 14.87% | 126.21 | 5.46% | 80.06 | 98.33 | – | – | – | –
11 | COC(=O)Nc1nc2ccc(Oc3ccc(NC(=O)Nc4cc(C(F)(F)F)ccc4F)cn3)cc2[nH]1 [GW681170] | 116.32 | 18.59% | 96.18 | 3.10% | 102.17 | 112.93 | – | – | – | –
12 | NS(=O)(=O)CCc1cccc(Nc2nccc(-c3c(-c4cccc(NC(=O)c5c(F)cccc5F)c4)nn4ccccc34)n2)c1 [UNC10224988A] | 124.64 | 7.44% | 106.43 | 3.80% | – | – | 109.41 | 101.39 | – | –
13 | O=c1cc(N2CCOCC2)nc2n(Cc3cccc4ccccc34)ccn12 [UNC10225439A] | 128.21 | 9.76% | 77.38 | 8.17% | – | – | 73.77 | 88.56 | – | –
14 | CC[C@@H]1CO[C@H](C(=O)Nc2ccccc2)CN1c1cc(-c2ccc3c(N)n[nH]c3c2)nc(NC)n1 [GSK2376236] | 121.19 | 8.81% | 114.69 | 3.52% | 102.90 | 87.99 | – | – | – | –
15 | C[C@H]1CC[C@@H](C(=O)Nc2ccccc2)CN1c1cc(-c2ccc3c(N)n[nH]c3c2)nc(N)n1 [GSK2283293] | 95.91 | 11.00% | 101.77 | 5.47% | 68.06 | 92.27 | – | – | – | –
16 | O=C(Nc1ccc(Oc2ccc3nc(NC(=O)c4ccco4)[nH]c3c2)cc1)Nc1cc(C(F)(F)F)ccc1F [GW683134] | 71.64 | 30.65% | 83.90 | 14.35% | 82.17 | 71.77 | – | – | – | –
17 | CC(=O)c1cccc(NC(=O)NC2CCN(c3ccnc(Nc4ccc(F)cc4)n3)C2)c1 (stereo not drawn) [GSK1379710] | 98.98 | 16.11% | 70.15 | 4.15% | 124.22 | 115.02 | – | – | – | –
18 | CC(C)S(=O)(=O)N1CCN(Cc2ccc3c(c2)nc(NC(=O)c2ccsc2)n3C[C@H](O)c2ccccc2)CC1 [GW635815] | 125.41 | 6.25% | 78.91 | 6.81% | 100.23 | 98.01 | – | – | – | –

Row | Structure (SMILES) | Nuclear Count [1] | TFE3 % [2] | AK [3] | TFEB % [4] | DQ Intensity [5, 6] | DQ Spot [5, 7] | DQ Intensity ([5]; PKIS2 primary screening) | DQ Spot ([5]; PKIS2 primary screening) | DQ Intensity [5] | DQ Spot [5]
19 | Cn1cncc1-c1ccc2ncnc(Nc3ccc(OCc4ccccc4)cc3)c2c1 [UNC10225497A] | 104.34 | 13.09% | 50.65 | 8.56% | 100.86 | 83.02 | – | – | – | –
20 | N#Cc1ccc(CCNc2nccc(-c3cccc(CN4CCNCC4)c3)n2)cc1 [GSK2137462] | 74.38 | 23.49% | 187.39 | 6.80% | 97.76 | 74.26 | – | – | – | –
21 | C[C@@H](Oc1cc(-n2cnc3ccc(NC(=O)NC(C)(C)C)cc32)sc1C(N)=O)c1ccccc1Cl [UNC10225287A] | 136.32 | 9.35% | 76.21 | 3.50% | – | – | 115.96 | 109.60 | – | –
22 | FC(F)(F)c1ccc(-c2cc(-c3c[nH]nc3-c3ccccn3)ccn2)cc1 [UNC10225241A] | 106.44 | 6.11% | 109.99 | 3.57% | 101.49 | 108.48 | – | – | – | –
23 | O=C(NCCNc1ccnc(NCc2ccc(F)cc2)n1)c1cc2ccccc2s1 [GSK1379944] | 79.28 | 12.27% | 378.86 | 8.85% | 122.34 | 117.48 | – | – | – | –
24 | CNc1nccc(-c2c(-c3ccc(F)cc3)ncn2C2CCN(C)CC2)n1 [UNC10225274A] | 122.34 | 15.08% | 126.95 | 7.89% | – | – | 105.02 | 100.15 | – | –
25 | CCCc1ccc(S(=O)(=O)NC2CCN(c3ccnc(Nc4ccc(OC)cc4)n3)C2)cc1 (stereo not drawn) [GSK1379737] | 116.08 | 12.75% | 106.07 | 5.95% | 83.70 | 93.35 | – | – | – | –
26 | COc1cccc(-c2nc(-c3ccccc3)[nH]c2-c2ccncc2)c1 [UNC10225025A] | 132.30 | 10.01% | 113.94 | 4.20% | 97.17 | 101.78 | – | – | – | –
27 | COc1cc2c(Nc3ccc(NC(=O)c4ccccc4)cc3)ncnc2cc1OCCCN1CCOCC1 [UNC10225250A] | 140.08 | 6.21% | 83.23 | 4.27% | – | – | – | – | 81.48 | 82.98
28 | COc1cccc(C2=C(N(C)c3ccccc3)C(=O)NC2=O)c1 [UNC10225293A] | 78.26 | 13.51% | 74.50 | 4.50% | 96.89 | 106.44 | – | – | – | –
29 | Cc1c(Cn2c3ccccc3n3c(=O)cc(N4CCOCC4)nc23)cccc1C(F)(F)F [UNC10225195A] | 108.51 | 10.62% | 76.50 | 7.03% | – | – | 86.55 | 100.26 | – | –
30 | COc1cccc(NC(=O)NCCNc2ccnc(Nc3ccc(F)cc3)n2)c1 [GSK1379879] | 93.19 | 16.07% | 80.56 | 4.69% | 127.01 | 112.84 | – | – | – | –
31 | FC(F)(F)c1cc(Br)cc(Nc2nccc(-c3cnn4ncccc34)n2)c1 [UNC10225191A] | 72.92 | 14.10% | 83.14 | 6.52% | – | – | 110.85 | 116.61 | – | –
32 | CN1C(=O)C(Nc2cc(Cl)c(O)c(Cl)c2)=C(c2ccc(Cl)cc2)C1=O [UNC10225212A] | 107.72 | 7.81% | 103.32 | 3.71% | 96.22 | 97.02 | – | – | – | –
33 | Cc1ccc(NC(=O)Nc2ccc(Cl)c(C(F)(F)F)c2)cc1-c1ccc(C(=O)Nc2ccncc2)cc1 [UNC10225359A] | 100.74 | 18.34% | 88.88 | 9.28% | – | – | 70.67 | 82.92 | – | –
34 | COc1cccc(-n2cnc3c(N)ncnc32)c1 [UNC10225454A] | 128.34 | 8.30% | 83.60 | 7.17% | – | – | 95.23 | 104.69 | – | –
35 | CCCCCc1nc2c(N)ncnc2n1CCCCC [UNC10225389A] | 110.88 | 10.63% | 96.98 | 4.57% | – | – | 103.02 | 109.08 | – | –

Reference: paper PMC9851200, “Multiparameter phenotypic screening for endogenous TFEB and TFE3 translocation identifies novel chemical series modulating lysosome function” (Autophagy, 2022)
